A word on the bioavailability: it is the share of a dose that reaches the circulation, judged against a reference dose that is usually intravenous. In general, inhibition refers to the relative decrease from the control value, in per cent. Broadly, the fraction unbound is free concentration divided by total concentration. As usually defined, the clearance is a measure of how efficiently the substance is removed, as volume per time.

Consider three molecules from ChEMBL document CHEMBL5244269, “Improving metabolic stability and removing aldehyde oxidase liability in a 5-azaquinazoline series of IRAK4 inhibitors” (Bioorg Med Chem, 2020).

The test system of one data set is OCI-Ly10. The experiment in a line: Growth inhibition of human OCILY10 cells at 10 uM incubated for 3 days (reference value: -2%). It is filed as functional. The following applies: OCI-Ly10, 72 h, time 3 day, read-out: GI.
The nature of data set [1]: Oral bioavailability in mouse at 1 mg/kg. Format: ADME, organism-based. The note with it: in vivo.
The subject of data set [2] is SUD4. In words: Growth inhibition of human SU-DHL-4 cells at 10 uM incubated for 3 days (reference value: 2%). It is filed as functional. The following applies: SU-DHL-4, 72 h, time 3 day, read-out: GI.
The subject of data set [3] is SUD4. The experiment in a line: Growth inhibition of human SU-DHL-4 cells at 3.3 uM incubated for 3 days (reference value: 2%). Format: functional. The note with it: SU-DHL-4, 72 h, time 3 day, read-out: GI.
The nature of data set [4]: Metabolic stability in mouse liver microsomes assessed as intrinsic clearance. It is filed as ADME, Microsome. The following applies: read-out: CLH. For orientation: Liver microsomes are a subcellular fraction often used to study metabolism.
Data set [5] is described as follows: Oral bioavailability in Han Wistar rat at 2 mg/kg. Format: ADME, organism-based. The note with it: in vivo.
Data set [6] in a line: Terminal half life in Han Wistar rat at 1 mg/kg, iv. The note with it: in vivo, read-out: beta t1/2 (converted). It is filed as ADME, organism-based.
Data set [7] can be described thus: Metabolic stability in rat liver microsomes assessed as intrinsic clearance. The note with it: read-out: CLH. Format: ADME, Microsome.
The nature of data set [8]: Volume of distribution at steady state in Han Wistar rat at 2 mg/kg, po or 1 mg/kg, iv. It is filed as ADME, organism-based. The following applies: in vivo.
Data set [9] is described as follows: Metabolic stability in monkey hepatocytes assessed as intrinsic clearance measured per 10^6 cells. Format: ADME, cell-based, Macaca mulatta, Hepatocyte. The following applies: rhesus monkey, read-out: CLH.
A short description of data set [10]: Volume of distribution at steady state in cynomolgus monkey at 1 mg/kg, iv. Format: ADME, organism-based, Macaca fascicularis. The following applies: in vivo, read-out: Vdss.
The target in data set [11] is T1, Interleukin-1 receptor-associated kinase 4 (Homo sapiens) (UniProt Q9NWZ3).
T1 sequence (whole entry): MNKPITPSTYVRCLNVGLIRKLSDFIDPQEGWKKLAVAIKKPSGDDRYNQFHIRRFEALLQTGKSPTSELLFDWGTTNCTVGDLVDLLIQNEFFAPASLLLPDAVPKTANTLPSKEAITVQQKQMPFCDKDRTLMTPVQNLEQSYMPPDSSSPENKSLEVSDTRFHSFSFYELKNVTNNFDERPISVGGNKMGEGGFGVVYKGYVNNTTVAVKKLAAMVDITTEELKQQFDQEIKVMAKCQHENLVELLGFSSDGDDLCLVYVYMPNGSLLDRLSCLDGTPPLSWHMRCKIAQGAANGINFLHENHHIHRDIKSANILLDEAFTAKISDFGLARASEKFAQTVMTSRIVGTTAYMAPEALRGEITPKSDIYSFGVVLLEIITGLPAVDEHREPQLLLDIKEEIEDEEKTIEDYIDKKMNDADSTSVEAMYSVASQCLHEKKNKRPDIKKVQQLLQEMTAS
The experiment in a line: Inhibition of IRAK4 (unknown origin) at 0.1 uM relative to control.

Data set [12] is described as follows: Plasma protein binding in human assessed as free fraction by equilibrium dialysis analysis. It is filed as ADME, cell-free.
A short description of data set [13]: Volume of distribution at steady state in CD1 mouse at 1 mg/kg, po or 0.5 mg/kg, iv. It is filed as ADME, organism-based. The note with it: in vivo.
Data set [14] can be described thus: Metabolic stability in rat hepatocytes assessed as intrinsic clearance measured per 10^6 cells. It is filed as ADME, cell-based, Hepatocyte. The following applies: read-out: CLH.
The nature of data set [15]: Metabolic stability in monkey liver microsomes assessed as intrinsic clearance. Format: ADME, Macaca mulatta, Microsome. The following applies: rhesus monkey, read-out: CLH.
The nature of data set [16]: Plasma protein binding in monkey assessed as free fraction by equilibrium dialysis analysis. The note with it: rhesus monkey. It is filed as ADME, cell-free, Macaca mulatta.
A short description of data set [17]: Clearance in cynomolgus monkey at 1 mg/kg, iv. It is filed as ADME, organism-based, Macaca fascicularis. The note with it: in vivo.
A short description of data set [18]: Metabolic stability in dog hepatocytes assessed as intrinsic clearance measured per 10^6 cells. It is filed as ADME, cell-based, Canis lupus familiaris, Hepatocyte. The note with it: read-out: CLH.
Data set [19] has as its target T2, Phosphatidylinositol 4,5-bisphosphate 3-kinase catalytic subunit delta isoform (Homo sapiens) (UniProt O00329).
T2 sequence (whole entry): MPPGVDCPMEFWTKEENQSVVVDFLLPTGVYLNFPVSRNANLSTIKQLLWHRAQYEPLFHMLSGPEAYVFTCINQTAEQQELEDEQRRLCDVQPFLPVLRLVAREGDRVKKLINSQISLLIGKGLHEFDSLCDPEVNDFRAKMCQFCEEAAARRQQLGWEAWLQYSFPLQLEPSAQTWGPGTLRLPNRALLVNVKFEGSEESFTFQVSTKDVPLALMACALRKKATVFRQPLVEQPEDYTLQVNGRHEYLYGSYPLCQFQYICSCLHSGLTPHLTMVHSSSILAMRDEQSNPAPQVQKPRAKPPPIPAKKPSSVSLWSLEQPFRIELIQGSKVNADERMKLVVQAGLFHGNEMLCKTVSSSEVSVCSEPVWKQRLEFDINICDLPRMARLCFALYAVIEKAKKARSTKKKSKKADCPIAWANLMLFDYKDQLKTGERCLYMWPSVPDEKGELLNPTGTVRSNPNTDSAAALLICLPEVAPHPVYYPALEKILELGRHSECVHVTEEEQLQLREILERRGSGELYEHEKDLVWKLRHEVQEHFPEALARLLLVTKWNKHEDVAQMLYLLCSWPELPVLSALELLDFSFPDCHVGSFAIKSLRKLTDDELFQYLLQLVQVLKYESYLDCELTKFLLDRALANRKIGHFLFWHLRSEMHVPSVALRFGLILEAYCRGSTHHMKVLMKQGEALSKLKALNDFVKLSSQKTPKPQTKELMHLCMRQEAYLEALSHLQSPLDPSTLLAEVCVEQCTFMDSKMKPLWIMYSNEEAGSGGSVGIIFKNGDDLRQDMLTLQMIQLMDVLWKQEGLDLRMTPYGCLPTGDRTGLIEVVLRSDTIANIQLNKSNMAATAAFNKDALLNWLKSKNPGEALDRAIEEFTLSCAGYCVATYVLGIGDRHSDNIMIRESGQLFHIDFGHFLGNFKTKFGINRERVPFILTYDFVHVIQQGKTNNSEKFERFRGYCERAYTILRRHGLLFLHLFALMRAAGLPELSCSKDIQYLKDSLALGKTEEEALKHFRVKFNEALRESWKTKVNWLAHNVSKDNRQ
The experiment in a line: Inhibition of PI3Kdelta (unknown origin) at 0.1 uM relative to control.

The nature of data set [20]: Oral bioavailability in CD1 mouse at 1 mg/kg. Format: ADME, organism-based. The note with it: in vivo.

Molecules are shown by their SMILES. A value given as a limit tells only on which side of the number the result lay.

`CC[C@@H]1[C@H](F)C(=O)N[C@@H]1COc1nccc2cc(C(N)=O)c(OC)cc12` [ZIMLOVISERTIB]: in the data set with OCI-Ly10, the inhibition of growth at 10 µM is 63%.

Take `Cc1ncc(-c2nc3c(NC(C)C)nc(Nc4cnn(C5CC6(C5)CN(C)C6)c4)nc3cc2F)cn1`: the bioavailability in [1] was no more than 10%. Further, the inhibition of growth at 10 µM in the data set with SUD4 [2] amounted to 6%. Moreover, in the data set on SUD4 [3], the inhibition of growth at 3.3 µM amounted to 4%.

As to `Cc1ncc(-c2nc3c(OC4(C)CC4)nc(Nc4cnn(C5CCN(C)CC5)c4)nc3cc2F)cn1`, the microsomal CLint is 13 µL/min/mg in data set [4], 16 µL/min/mg in [7] and 35 µL/min/mg in data set [15]. Besides, the results for the bioavailability in data set [5] and in data set [20] were 55% and 66%, respectively. Also, the half-life in data set [6] is 312 min. Moreover, the Vdss stood at 4.3 L/kg in data set [8] and 4.1 L/kg in data set [13]. In addition, the figures for the hepatocyte CLint in [9], in data set [14] and in [18] were 4.7 µL/min/1e6 cells, 5.6 µL/min/1e6 cells and 4.5 µL/min/1e6 cells, respectively. For the same molecule, in data set [10], the Vd is 8.6 L/kg. Also, the inhibition worked out at 102% in data set [11] and 61% in [19]. In addition, the results for the fraction unbound in data set [12] and in [16] were 0.21 and 0.33, respectively. In data set [17], this molecule showed a clearance of 68 mL/min/kg.
